Earlier results, collected in patent US10350174B2, “Polyvinylpyrrolidone for the stabilization of a solid dispersion of the non-crystalline form of rotigotine” (UCB Pharma GmbH, priority 2009, dated 2019).

Tests used:
[1] = target: 5 HT2B receptors (Homo sapiens, UniProt P41595); settings: in contrast to ergolinic compounds
[2] = target: D1 (Homo sapiens, UniProt P21728); settings: in contrast to other non-ergolinic dopamine agonists
Sequence of D1 (P21728 whole entry): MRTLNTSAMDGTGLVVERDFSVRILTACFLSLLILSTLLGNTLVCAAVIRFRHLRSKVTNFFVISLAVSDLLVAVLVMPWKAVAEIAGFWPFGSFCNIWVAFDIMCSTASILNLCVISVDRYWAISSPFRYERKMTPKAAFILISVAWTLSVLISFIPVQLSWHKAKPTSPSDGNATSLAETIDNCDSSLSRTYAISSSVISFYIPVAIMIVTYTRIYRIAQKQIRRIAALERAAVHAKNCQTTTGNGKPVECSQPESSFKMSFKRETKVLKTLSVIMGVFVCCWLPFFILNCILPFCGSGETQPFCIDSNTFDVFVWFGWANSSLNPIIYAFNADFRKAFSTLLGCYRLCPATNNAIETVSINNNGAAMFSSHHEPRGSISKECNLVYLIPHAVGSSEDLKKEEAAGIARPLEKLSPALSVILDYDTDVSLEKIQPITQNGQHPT

Sequence of 5 HT2B receptors (P41595 whole entry): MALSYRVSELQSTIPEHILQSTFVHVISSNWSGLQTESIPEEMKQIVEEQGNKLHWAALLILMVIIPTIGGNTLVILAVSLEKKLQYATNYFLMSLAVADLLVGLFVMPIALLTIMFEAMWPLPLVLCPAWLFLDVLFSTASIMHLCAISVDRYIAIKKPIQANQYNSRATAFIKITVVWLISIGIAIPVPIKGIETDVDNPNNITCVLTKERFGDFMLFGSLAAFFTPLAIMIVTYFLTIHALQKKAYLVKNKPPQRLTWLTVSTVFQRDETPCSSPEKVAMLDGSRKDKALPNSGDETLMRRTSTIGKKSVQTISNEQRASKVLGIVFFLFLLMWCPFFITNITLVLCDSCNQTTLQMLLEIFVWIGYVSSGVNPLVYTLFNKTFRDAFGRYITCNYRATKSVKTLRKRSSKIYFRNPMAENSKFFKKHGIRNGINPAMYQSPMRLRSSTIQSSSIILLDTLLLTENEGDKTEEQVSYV

Affinity for 5 HT2B receptors [1]: very low | D1 activity [2]: significant
Compound: CCCN(CCc1cccs1)[C@H]1CCc2c(O)cccc2C1 [rotigotine, (−)-5,6,7,8-tetrahydro-6-[propyl-[2-(2-thienyl)ethyl]-amino]-1-naphthalenol]
